Measurements taken from PubChem BioAssay AID179 (DTP/NCI, 2004).
Several values for one entry are separate records, joined by “and”; a condition that tells them apart may be missing. Equal values may be shown once. Activity calls are given as the source filed them.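 Rule for the calls: active = compounds giving half or more protection of infected cells from virus-caused growth loss, again on retest; inactive = the rest.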 Where a SMILES comes first, the peptide text is derived from it. The star is where a group is joined. Cbz = O=C(OCc1ccccc1)*

System: CEM cells HIV-1 protection, formazan growth assay
Experiment: NCI AIDS Antiviral Assay
Conditions: for IC50: measured here: growth of uninfected CEM cells
Summary of the method: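 Steps: treat uninfected and HIV-1-infected human CEM cells at five drug levels; quantify growth by soluble formazan; retest any compound reaching 50% protection; classify actives from the retest.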

SMILES	EC50	IC50	outcome
N#CC(N)=Nc1ccccc1	> 617 µM	347 µM	–
O=C1Oc2cc(O)ccc2C2OCNCC12 (centres undefined)	> 200 µM	> 200 µM	–
N#CC1=C(S)N(C2OC(CO)C(O)C(O)C2O)C(c2ccccc2)=CC1c1cccs1 (centres undefined)	> 200 µM	27.5 µM	–
O=[N+]([O-])C1C2C=CC(C2)[C@H]1c1ccccc1Cl (some centres undefined)	–	–	inactive
CC1/C=C/[C@@]2(C)CCC(C(C)(C)O)C2C(O)C[C@](C)(O)/C=C/C1 (some centres undefined)	–	–	inactive
COc1c(OCc2ccccc2)c(OCc2ccccc2)cc(COS(=O)(=O)O)c1-c1c(COS(=O)(=O)O)cc(OCc2ccccc2)c(OCc2ccccc2)c1OC	> 1.58 µM	> 1.58 µM	–
NC(=N\N=C/c1ccc(Cl)cc1)/C(N)=N\N=C/c1ccc(Cl)cc1	–	–	inactive
N#C/C(=C(/c1ccccc1)c1ccccn1)c1ccc(Cl)cc1	> 2 µM	1 µM	–
O=c1oc2ccccc2c(O)c1C1=N/C(=N/N=C/c2ccc(Cl)cc2)SC1	> 200 µM	> 200 µM	–
COc1cc(C2c3cc4c(cc3C(O)C3CCC(=O)N23)OCO4)cc(OC)c1OC (centres undefined)	> 200 µM	18.6 µM	–
CCN1CCN=c2c3cc(OC)ccc3n3cnc4ccc1c2c43	> 20 µM	0.0955 µM	–
COc1cc2c(c(OC)c1OC)-c1ccc(SC)c(=S)cc1[C@@H](NC(C)=O)CC2	–	–	inactive
C/C(C=O)=C\c1ccc([N+](=O)[O-])cc1	> 135 µM	75.9 µM	–
O=C(NC1CCCCC1NC(c1ccccc1)(c1ccccc1)c1ccccc1)C(=O)NC1CCCCC1NC(c1ccccc1)(c1ccccc1)c1ccccc1 (centres undefined)	> 100 µM	> 100 µM	–
COC(=O)C1=CC(=O)OC1(OO)c1ccccc1 (centres undefined)	> 200 µM	45.7 µM	–
Cc1cc(C)cc(/C(C#N)=C/c2ccc(N(C)C)cc2)c1	> 2 µM	0.102 µM	–
COc1ccc2c(c1)-c1nc(=S)n(CCCN(C)C)c3ccc([N+](=O)[O-])c(c13)N2	> 2 µM	0.389 µM	–
O=C(CC1=Nc2nnc(CCCCCCCc3nnc4n3C(=O)C(CC(=O)c3ccc5ccccc5c3)=N4)n2C1=O)c1ccc2ccccc2c1	> 4.07 µM	> 4.07 µM	–
CO[C@@H]1C[C@H]2[C@@H]3CC[C@H]([C@H](C)COC(C)=O)[C@@]3(C)CC[C@@H]2[C@@]2(C)CC[C@H]3C[C@]312	> 100 µM	> 100 µM	–
CN(C)CCOC1(Cc2ccc(F)cc2)CCC(C(C)(C)C)CC1 (centres undefined)	> 200 µM	3.89 µM and 3.98 µM	–
CC(SS(=O)(=O)O)C(N)=NCc1ccccc1 (centres undefined)	> 200 µM	67.6 µM	–

SMILES	EC50	IC50	outcome
CCCC(=O)Nc1cc([N+](=O)[O-])c([N+](=O)[O-])cc1OC	> 200 µM	10.7 µM	–
N#Cc1c(C#N)c(-c2ccccc2)n(-c2ccccc2)c1N	> 200 µM	53.7 µM	–
O=c1oc2cc(O)ccc2c(O)c1C(c1cccnc1)c1c(O)c2ccc(O)cc2oc1=O	–	–	inactive
CC(=O)CC(=O)N1CCSC1=S	126 µM	> 200 µM	–
O=NN(CCCl)C(=O)NC1CCC(=O)NC1=O (centres undefined)	> 955 µM	182 µM	–
CC(=O)Nc1ccc(/C(C#N)=C/c2ccc(N(C)CCC#N)cc2)cc1	> 200 µM	19.1 µM	–
CC1CCC(=O)C(C(=O)CC2CC(=O)NC(=O)C2)C1 (centres undefined)	> 200 µM	> 200 µM	–
COC(=O)C1Cc2c([nH]c3ccccc23)-c2[nH]c3ccccc3c2CC(NC(C)=O)C(=O)NCC(=O)NCC(=O)N1 (centres undefined)	> 200 µM	> 200 µM	–
[N-]=[N+]=NC1=C(C(=O)c2ccccc2)C(=O)c2cccc3cccc1c23	> 100 µM	49 µM	–
C=C(c1ccc(OC)c(OC)c1)c1nccc2cc(OC)c(OC)cc12	> 74.1 µM	12.6 µM	–
O=C(O)c1cc2cc(Br)ccc2cc1O	> 200 µM	85.1 µM	–
CC(Nc1ccc(S(=O)(=O)N=C(N)N)cc1)c1c2ccccc2nc2ccccc12 (centres undefined)	–	–	inactive
O=Cc1ccc(-c2ccc(S(=O)(=O)O)cc2)o1	> 200 µM	93.3 µM	–
COc1ccc2c(=O)c(-c3ccccc3)c(C)oc2c1	> 200 µM	75.9 µM	–
CCOC(=O)C(C)(C)Oc1ccc2c(-c3ccc(Cl)cc3)cc(=O)oc2c1	> 13.5 µM	> 13.5 µM	–
O=C1/C(=C/c2cccc([N+](=O)[O-])c2)CCc2ccccc21	> 9.77 µM	> 9.77 µM	–
NC(CSS(=O)(=O)O)=NCC1CCCCC1	> 200 µM	58.9 µM	–
CCCCCCCCCCOC1C(C(C)OCCCN(C)C)OC2OC3(CCCCC3)OC21 (centres undefined)	> 200 µM	10.5 µM	–
Cc1cc(C)c(C(=O)/C=C/c2ccccc2)c(C)c1	> 28.8 µM	> 28.8 µM	–
C=CCOCn1cc(F)c(=O)[nH]c1=O	> 200 µM	> 200 µM	–
COC(=O)C1=C(CS(=O)c2ccccc2[N+](=O)[O-])ON(C)C1c1ccccc1 (centres undefined)	–	–	inactive

SMILES	EC50	IC50	outcome
COc1cc2occ(-c3ccc(O)c(O)c3)c(=O)c2cc1O	> 200 µM	26.3 µM	–
Cc1cc(Cl)ccc1C(=O)c1ccc2ccccc2c1C(=O)O	> 550 µM	126 µM	–
COc1cc(OC)nc(Nc2c(C#N)c3nc4ccccc4n3c3ccccc23)n1	> 100 µM	> 100 µM	–
CCOC(=O)CCC(NC(=O)C(Cc1ccccc1)NC(=O)OCc1ccccc1)C(=O)OCC (stereo not drawn) (Cbz-Phe-Glu(OEt)-OEt; configuration not given here)	> 200 µM	9.55 µM	–
COc1ccc(-c2oc3c(CC(=O)O)cccc3c(=O)c2OC)cc1	> 200 µM	112 µM	–
C/C(O)=C(/C=N/C(=S)Nc1ccc(S(N)(=O)=O)cc1)C(=O)Nc1ccccc1C	> 200 µM	> 200 µM	–
C=C1C(O)O[C@@H]2O[C@@]3(C)CC[C@H]4[C@H](C)CC[C@@H]1[C@@]24OO3 (some centres undefined)	> 200 µM	8.71 µM	–
N#Cc1nc(C2SCCCS2)oc1N	> 200 µM	> 200 µM	–
CC(=O)Nc1cc(NC(C)=O)c(N=O)c(NC(C)=O)n1	–	–	inactive
CCOC(=O)C(=C=C=C(c1ccccc1)c1ccccc1)C(=O)OCC	–	–	inactive
CC1C(NNc2ccccc2)Oc2cc3c(cc2C1c1ccccc1O)OCO3 (centres undefined)	–	–	inactive
O=S(=O)(O)c1cc(N=Nc2cc(S(=O)(=O)O)c3cccnc3c2O)ccc1CCc1ccc(N=Nc2cc(S(=O)(=O)O)c3cccnc3c2O)cc1S(=O)(=O)O	1.7 µM	9.33 µM	–
CC(=O)NCCSSCCSC(=S)N1CCCCC1	> 200 µM	33.9 µM	–
C/C(=N/Nc1ccc([N+](=O)[O-])cc1[N+](=O)[O-])C(CC(C(=O)NCc1ccccc1)/C(C)=N\Nc1ccc([N+](=O)[O-])cc1[N+](=O)[O-])C(=O)NCc1ccccc1 (centres undefined)	> 6.92 µM	> 6.92 µM	–
CC1(C)[C@H]2CC[C@]1(C)[C@H](OC(=O)NNC(=O)O[C@@H]1C[C@@H]3CC[C@@]1(C)C3(C)C)C2	> 200 µM	12.6 µM	–
CC(=O)OC12CC(C)C3(O)C4C=C(C)C(=O)[C@@]4(O)CC(CO)=C[C@H]3C1C2(C)C (some centres undefined)	–	–	active
COc1ccc(-c2c(C#N)c(S)n(C3OC(COC(C)=O)C(OC(C)=O)C(OC(C)=O)C3OC(C)=O)c(=O)c2C#N)cc1 (centres undefined)	> 200 µM	> 200 µM	–
C[C@]12CC[C@H]3[C@@H](CC[C@]4(O)C[C@@H](O)CC[C@]34C=O)[C@@]1(O)CC[C@@H]2C1=CC(=O)OC1	> 2 µM	0.24 µM	–
N#C/C(=C\c1ccc2[nH]ccc2c1)C(=O)NCCCCNC(=O)/C(C#N)=C/c1ccc2[nH]ccc2c1	> 7.94 µM	> 7.94 µM	–
OCCCN1CCCC12CCCCC2	> 200 µM	> 200 µM	–
O=C(/C=C/c1ccccc1)CCC1C(=O)NC(=S)NC1=O	> 85.1 µM	> 85.1 µM	–

SMILES	EC50	IC50	outcome
c1ccc(Nc2nnc(CSc3nc(-c4ccccc4)c(-c4ccccc4)[nH]3)s2)cc1	> 81.3 µM	72.4 µM	–
CCCc1cc(=O)oc2c3c(c4c(c12)OC(C)(C)C(O)C4=O)O[C@@H](C)[C@H](C)[C@@H]3O (some centres undefined)	> 200 µM	85.1 µM	–
N#Cc1c2c([nH]c(=O)c1C#N)CCCC2	> 200 µM	> 200 µM	–
O=C(N/N=C1/C(=O)N(c2ccc(Cl)cc2Cl)C(=O)C(=O)C1c1nc2ccccc2o1)c1ccccc1O (centres undefined)	–	–	inactive
N#C/C(=C/NC(=S)N=Nc1c(O)[nH]c2ccccc12)C(N)=O	> 200 µM	195 µM	–
O=C(O)CN(c1ccccc1)S(=O)(=O)c1ccccc1[N+](=O)[O-]	–	–	inactive
NC(=O)c1nnc2cc(F)c(F)cc2c1N	> 200 µM	> 200 µM	–
OC(c1ccccc1)C(F)(F)c1nc2ccccc2o1 (centres undefined)	> 200 µM	> 200 µM	–
Cc1cc(NS(=O)(=O)c2ccc(NC(NC(=O)C(C(F)(F)F)C(F)(F)F)(C(F)(F)F)C(F)(F)F)cc2)no1	> 200 µM	> 200 µM	–
CCCCCCCCCCC(O)C1CCC(C(O)CCC(O)C2CCC(CCCCCCC[C@H](O)CC3=C[C@@H](C)OC3=O)O2)O1 (some centres undefined)	> 7.76 µM	0.00245 µM	–
Nc1ncn2c(n1)nc1ccccc12	> 200 µM	> 200 µM	–
CCC[CH2][Sn]([CH2]CCC)([O]C(=O)c1cc(OC)c(OC)c(OC)c1)[O]C(=O)c1cc(OC)c(OC)c(OC)c1	> 11 µM	1.45 µM	–
NS(=O)(=O)c1ccc(CNC(=O)c2ccccc2SC(=O)CCC[n+]2ccccc2)cc1	4.79 µM	13.8 µM	–
CC(C)(C)CC(C)(C)c1ccc(OCCO)cc1	–	–	inactive
COC(=O)c1nc(-c2ccc3c(n2)C(=O)C(N)=C(OC)C3=O)c(N)c(-c2ccc(OC)c(OC)c2O)c1C	> 10 µM	1.66 µM	–
O=P1(O)c2ccccc2CSCc2ccccc21	> 324 µM	> 324 µM	–
CC1=C(c2ccc(C)cc2)NC(=S)C(C)C(c2ccc(C)cc2)=N1 (centres undefined)	> 200 µM	97.7 µM	–
CCC(N)Cc1c[nH]c2ccccc12 (centres undefined)	> 200 µM	> 200 µM	–
Cc1ccc2c3c(c(=O)oc2c1)[C@H](C)C[C@@](C)(CO)O3	> 200 µM	178 µM	–
CN(C)CCCCNc1c2c(nc3c(Cl)cccc13)CCC2	> 794 µM	16.6 µM	–
Cc1ccccc1NC(=O)CC1C(=O)Nc2ccccc2S1=O (centres undefined)	> 21.9 µM	> 21.9 µM	–
